# Measurements reported in paper PMC11407620, “Repurposing auranofin and meclofenamic acid as energy-metabolism inhibitors and anti-cancer drugs” (PLOS ONE, 2024).
# What was measured:
# Glioblastoma U373 cells = assay: Cell proliferation, 24 h drug exposure; format: cell-based, human
# Breast MDA-MB-468 cells = assay: Cell proliferation, 24 h drug exposure; format: cell-based, human
# Method: (§1) All metastatic (breast MDA-MB231, MDA-MB468, cervix HeLa, prostate PC3, colorectal HCT116, COLO205, glioblastoma U373), low-metastatic (breast MCF-7) cancer and non-cancer (fibroblast 3T3, cardiomyocytes H9C2) cell lines (American Type Culture Collection, Rockville, MD, USA) used in this study were cultured in Petri dishes in 20 mL of Dulbecco’s Modified Eagle’s Medium (DMEM, Sigma, MO, USA) supplemented with 10% fetal bovine serum (Biowest, Mexico) and 10,000 U penicillin/streptomycin (Sigma-Aldrich, MO, USA). […] For growth and maintenance, cells were incubated in 5% CO2/95% air at 37°C and kept until 80–90% of confluence was reached. Then, cells were harvested, washed by centrifugation and resuspended in Krebs-Ringer buffer (KR, 125 mM NaCl, 5 mM KCl, 25 mM Hepes, 1 mM MgCl2, 1 mM KH2PO4, 1.4 mM CaCl2, pH 7.4) for further use. For experimentation, cancer cells (3–5 x 10^6 cells) were cultured in DMEM (with 25 mM glucose) for 24 h in the absence of drugs. Afterwards, old-medium was replaced with fresh DMEM medium (with 25 mM glucose) in the absence (control, non-treated cells) or in the presence of logarithmic concentrations of Aur and MA for 24 h more, under the same culture conditions described above. Viability of cultured cells was determined by the trypan blue exclusion assay. The protein concentration was determined by the Lowry method.
# (§2) For cell proliferation in the presence of drugs, cancer cells (20 x 10^3 cells/well) were grown in 96-well plates containing DMEM (Sigma-Aldrich) plus 10% bovine fetal serum for 24 h. Afterwards, Aur or MA (0.01, 0.1, 10 and 100 μM) were added to the cell cultures and incubated for additional 24 h. The effect of these drugs on cell proliferation was determined in 96-well plates by the MTT (3-[4,5-dimethyl-thiazol-2-yl]-2,5-diphenyltetrazolium bromide) assay. The viability of cancer cells was > 95% after treatment with drugs.
# Colorectal COLO205 cells = assay: Cell proliferation, 24 h drug exposure; format: cell-based, human
# Method: as §1, §2
# HeLa cells [1] = assay: Glycolysis flux (lactate production) in intact cells; format: cell-based, human
# Method: (§3) For glycolysis flux, cells (3 mg protein/mL) were incubated in KR buffer. Glycolysis was started by adding 5 mM external glucose (Sigma-Aldrich, MO, USA), and cellular samples were withdrawn after 0 and 10 min of incubation at 37°C under smooth orbital shaking. At the indicated times, the cells were rapidly mixed with 3% (w/v) ice-cold perchloric acid and centrifuged. The supernatants were neutralized with 1N KOH/100mM Tris. To rule out lactate production by glutaminolysis, cells were also incubated with 10 mM 2-deoxyglucose (Sigma-Aldrich, MO, USA). Lactate was determined by a standard method with lactate dehydrogenase (Roche, Mannheim, Germany) following the NADH formation at 340 nm.
# MDA-MB-231 cells = assay: as above; format: cell-based, human; conditions: +Aur 0.8 μM, 24 h
# Method: as §3
# HeLa cells [2] = assay: ROS production and total content (DHE); format: cell-based, human; conditions: Aur 1.7 μM, 24 h
# Method: Fig 3 Radical oxygen species in Aur-treated cancer cells. (A) ROS production and (B) ROS total content in DHE loaded-metastatic cancer cells. The 100% fluorescence corresponds to 1.9 ± 0.26 (n = 3); 1.2 ± 0.09 (n = 3); and 0.64 (n = 2) fluorescence arbitrary units for HeLa, MDA-MB-231 and U373 cells, respectively. The Aur concentration added was 1.7, 0.8 and 0.6 μM for HeLa, MDA-MB-231 and U373 cells, respectively. The contents of ROS shown were determined at the 120 min end-point, after adding 25 μM DHE. *p < 0.05 vs. Control (Non- treated cells).
# GAPDH = system: GAPDH; parameters: method as in PMID 36560881; conditions: OVCAR-8 cells; Aur 2.5 μM/ 8 h; cited from earlier work
# Rat Heart Mitochondria = assay: Oxygen consumption of isolated mitochondria; format: biochemical; conditions: 5 mM Glutamate/5 mM Malate
# Method: Rat liver (RLM) and heart (RHM) mitochondria were isolated as described previously by differential centrifugation.
# Respiration of AS-30D, liver and heart mitochondria (1 mg protein/mL) was assayed oxygraphically with a Clark-type O2 electrode in KME (120 mM KCl, 20 mM Mops, 1 mM EGTA) buffer pH 7.2 plus 2 mM KH2PO4, and different oxidizable substrates (as indicated in Results). For state 3 respiration, 600 nmol ADP were added. Mitochondria were incubated at 37°C with Aur and MA for 30–60 s before substrates were added. At the end of each respiratory measurement, dithionite was added to get the chemical zero oxygen signal.
smiles,measurement,setting,value
"CC(=O)OC[C@H]1O[C@@H]([S-])[C@H](OC(C)=O)[C@@H](OC(C)=O)[C@@H]1OC(C)=O.CCP(CC)CC.[Au+] [Aur, [1-(thio-κS)-β-D-glucopyranose-2,3,4,6-tetraacetyl] (triethylphosphine)-gold]",IC50,"Glioblastoma U373 cells; Glioblastoma U373, 24 h, read-out: IC50 for proliferation cell rate",0.6 ± 0.1 µM
same,TI ratio (3T3/ cancer cells),Glioblastoma U373 cells; IC50 3T3 / IC50 U373,70
same,TI ratio (H9C2/cancer cells),Glioblastoma U373 cells; IC50 H9C2 / IC50 U373,130
same,IC50,"Breast MDA-MB-468 cells; Breast MDA-MB-468, 24 h, read-out: IC50 for proliferation cell rate",2 ± 1 µM
same,TI ratio (3T3/ cancer cells),Breast MDA-MB-468 cells; IC50 3T3 / IC50 MDA-MB-468,21
same,TI ratio (H9C2/cancer cells),Breast MDA-MB-468 cells; IC50 H9C2 / IC50 MDA-MB-468,39
same,IC50,"Colorectal COLO205 cells; Colorectal COLO205, 24 h, read-out: IC50 for proliferation cell rate",6 ± 2 µM
same,TI ratio (3T3/ cancer cells),Colorectal COLO205 cells; IC50 3T3 / IC50 COLO 205,7
same,TI ratio (H9C2/cancer cells),Colorectal COLO205 cells; IC50 H9C2 / IC50 COLO 205,13
same,Glycolysis flux,"HeLa cells [1]; +Aur 1.7 μM, 24 h",4 ± 3 (3) nmol lactate min^-1 mg protein^-1
same,glycolytic flux inhibition,HeLa cells [1]; Aur alone (Table 2),75%
same,Glycolysis flux,MDA-MB-231 cells,3 ± 2 (3) nmol lactate min^-1 mg protein^-1
same,ROS production rate,HeLa cells [2],did not bring about increments
same,total ROS levels after 2 h measurement,HeLa cells [2],did not bring about increments
same,lower GAPDH activity vs. non-treated cells,GAPDH,40%
"Cc1ccc(Cl)c(Nc2ccccc2C(=O)O)c1Cl [MA, Meclofenamic acid]",Net State 3 oxygen consumption rate,Rat Heart Mitochondria; 10 μM MA,48 ± 83
same,Pseudo State 4 oxygen consumption rate,Rat Heart Mitochondria; 10 μM MA,143 ± 42 (3)
same,RC,Rat Heart Mitochondria; 10 μM MA,1.4 ±0.6 (3)
same,State 3 oxygen consumption rate,Rat Heart Mitochondria; 10 μM MA,177 ± 56 (3)
same,State 4 oxygen consumption rate,Rat Heart Mitochondria; 10 μM MA,126 ± 16 (3)
same,Net State 3 oxygen consumption rate,Rat Heart Mitochondria; 50 μM MA,12.5± 22
same,Pseudo State 4 oxygen consumption rate,Rat Heart Mitochondria; 50 μM MA,134 ± 9.5 (3)
same,RC,Rat Heart Mitochondria; 50 μM MA,1 (3)
same,State 3 oxygen consumption rate,Rat Heart Mitochondria; 50 μM MA,139 ± 22 (3)
same,State 4 oxygen consumption rate,Rat Heart Mitochondria; 50 μM MA,139 ± 22 (3)
